# In patent US6599541B1, “Composition for treatment of drug resistant bacterial infections and a method of treating drug resistant bacterial infections” (priority 1999, dated 2003):
# Tests used:
# Assay type in all cases: cell-based
# [1] = system: Pseudomonas aerugenosa; assay: Agar Dilution Method of Sensitivity testing, NE + antibiotic; details: for Growth Patterns after addition of NE: no. of cultures +++ (growth) / Growth Patterns after addition of NE: no. of cultures −−− (inhibition of growth): 16 resistant Pseudomonas strains, 48 hours
# Protocol: (§1) Two kinds of investigations were carried-out using these bacterial isolates—using an Agar Dilution Method of Sensitivity testing.
# (§2) i) The culture medium (Mueller Hinton Agar) was melted and distributed into a number of test tubes.
# (§3) ii) The stock solution of NE was dispensed into these test tubes in four different concentrations viz.
# (§4) iii) In the same medium, one of the antibiotics under investigation was also added so as to provide a variable concentration (at break-even point concentration) as described below:
# (§5) iv) The culture medium containing NE extract+the antibiotic were poured into petri dishes and allowed to solidify.
# (§6) v) The resistant bacterial strains were inoculated onto these plates, incubated for 48 hours and the growth patterns were studied on each plate.
# [2] = system: Klebsiella pneumoniae; assay: Broth Macro Dilution Test, MIC and MBC; details: antibiotic alone
# From the text: (§7) This was done by estimation of the Minimum Inhibitory Concentration (MIC) and Minimum Bactericidal Concentration (MBC) on the selected isolates by a Broth Macro Dilution Test.
# (§8) While conducting these tests, the guidelines given by the National committee of Clinical Laboratory Standards 1995 protocols were employed. Cation Supplemented Mueller Hinton Broth was used as medium for all organisms excepting for β haemolytic streptococci for which, Todd Hewit's Broth was used as medium.
# (§9) The following concentrations of antibiotics were tested to determine MIC and MBC.
# (§10) Co-trimoxazole (Sulpharnethoxazole/Trimethoprim/μg/μg per ml)
# (§11) A minimum inhibitory concentration is the lowest level of antibiotic needed to cause an inhibition to bacterial growth in culture medium whereas, the minimum bactericidal concentration is the lowest concentration of antibiotic to achieve a 100% killing of bacteria. Thus, these two values are the practical indices of intensity of bacterial resistance to a given antibiotic. On the other hand, a break-even point of any antibiotic indicates the attainable blood levels after an administration of full dose, in human/animal body. Thus, this point indicates the practical dosage of administering any given antibiotic effectively and beyond this point, even if an antibiotic is found to act effectively in experimental situation—such dose cannot be administered in a clinical situation.
# [3] = system: Salmonella senftenberg; assay: Broth Macro Dilution Test, MIC and MBC; details: Example 13: strain from burn wound swab culture; antibiotic alone
# From the text: as §7, §8, §9, §10, §11
# [4] = system: Klebsiella pneumoniae; assay: Broth tube test of NE with antibiotic at break point, percentage of killing
# Protocol: (§12) Since all the study isolates are resistant to the concerned antibiotics, each antibiotic is taken at its breakpoint concentration, (the highest serum concentration of that particular antibiotic reached after the maximum therapeutic dose in-vivo). The break points for various antibiotics are as follows:
# (§13) Preparation of Neem Extract: Stock solution of neem extract (1 mg/ml) was prepared, filtered and autoclaved. It was used in 4 concentrations—1000 μg/ml; 500 μg/ml; 250 μg/ml; 125 μg/ml.
# (§14) A set of four tubes with variable concentrations of the extract is prepared and to each of these tubes, the break point concentration of antibiotics is added. Now, these sets are inoculated with the study isolate in the same manner as per the broth dilution procedure. A set of six controls is inoculated with each isolate—in parallel with the main experiment.
# (§15) 2. Only antibiotic solution
# (§16) 3. Medium and antibiotic solution with inoculum
# (§17) 5. Only Neem extract at 250 μg/ml
# (§18) 6. Medium with Neem Extract and inoculum
# (§19) Reading the test All the tests and control tubes are observed for visible turbidity of growth first. Since all the study isolates were earlier confirmed to be resistant to the antibiotics, the bacterial growth is expected at the breakpoint concentration of the antibiotic. Any reduction in the turbidity as compared to the control tube no. 3 is noted as a possible additive or synergistic effect of the neem extract with the antibiotic. In absence of such effect, the tubes may show growth matching with the control no. 4.
# (§20) In case of a positive result, further sub-culturing was taken up, on solid media for colony counts with a calibrated loop. The colony counts could be noted by a semi quantitative method as 101 to 10^5 CFU/ml (Colony forming units). This is finally expressed as the percentage of killing as compared to the colony count obtained with control no. 4. Usually control tubes no. 3, 4 and 6 had similar colony counts.
# [5] = system: Salmonella senftenberg; assay: as above; details: Example 13 strain; antibiotic in combination with NE, uniform in all four concentrations
# Protocol: as §12, §13, §14, §15, §16, §17, §18, §19, §20
# [6] = system: Staphylococcus aureus; assay: Agar Dilution Method of Sensitivity testing, NE alone and NE + antibiotic; details: resistant S. aureus cultures, 48 hours
# Protocol: as §1
# i) To ascertain whether, NE can work as an antibacterial substance on its own. For this purpose, a stock-solution of NE was prepared and was sterilized as described in the preliminary experiments.
# ii) This stock-solution was dispensed into the culture medium (Mueller Hinton Agar) so as to provide while; the medium was in liquid form. Four different concentrations of NE, viz.
# iii) This medium was poured into petri dishes and allowed to solidify. Resistant cultures were inoculated on to these plates and after incubation for 48 hours, the growth patterns were assessed.
# iv) The experiments were run in triplicate, for each concentration—as per standard practices of microbiological testing procedures.
# as §2, §3, §4, §5, §6
# These cultures were obtained various clinical samples, such as sputum, non-healing infected wounds, throat swabs etc.
# [7] = antibiotic at break-even point + NE 125 μg/mL
# [8] = antibiotic at break-even point + NE 250 μg/mL
# [9] = antibiotic at break-even point + NE 500 μg/mL
# [10] = antibiotic at break-even point + NE 1000 μg/mL
# [11] = Example 3: strain from non-healing burn wound
# [12] = Example 4: strain from wound swab culture
compound,measurement,setting,value
CCN1CCN(C(=O)N[C@@H](C(=O)N[C@@H]2C(=O)N3[C@@H]2SC(C)(C)[C@@H]3C(=O)O)c2ccccc2)C(=O)C1=O [Piperacillin],Growth Patterns after addition of NE: no. of cultures +++ (growth),[1]; [7],3
same,Growth Patterns after addition of NE: no. of cultures −−− (inhibition of growth),[1]; [7],13
same,Growth Patterns after addition of NE: no. of cultures +++ (growth),[1]; [8],3
same,Growth Patterns after addition of NE: no. of cultures −−− (inhibition of growth),[1]; [8],13
same,Growth Patterns after addition of NE: no. of cultures +++ (growth),[1]; [9],3
same,Growth Patterns after addition of NE: no. of cultures −−− (inhibition of growth),[1]; [9],13
same,Growth Patterns after addition of NE: no. of cultures +++ (growth),[1]; [10],3
same,Growth Patterns after addition of NE: no. of cultures −−− (inhibition of growth),[1]; [10],13
same,isolates sensitized to the antibiotic by NE,"[1]; of 16 resistant strains, NE + antibiotic",13
Co-trimoxazole,MBC,[2]; [11],> 16/304
same,MIC,[2]; [11],8/152
same,MBC,[2]; [12],16/304
same,MIC,[2]; [12],8/152
same,MBC,[3],16/304
same,MIC,[3],8/152
same,killing,"[4]; Example 3 strain, antibiotic at break point in combination with NE, uniform at 1000, 500, 250, 125 μg/ml",50%
same,killing,"[4]; Example 4 strain, antibiotic at break-even concentration with NE, uniform at all four NE concentrations",90%
same,killing,[5],60%
Gentamicin,Growth Patterns after addition of NE: no. of cultures +++ (growth),[6]; [7],89
same,Growth Patterns after addition of NE: no. of cultures −−− (inhibition of growth),[6]; [7],13
same,Growth Patterns after addition of NE: no. of cultures +++ (growth),[6]; [8],88
same,Growth Patterns after addition of NE: no. of cultures −−− (inhibition of growth),[6]; [8],14
same,Growth Patterns after addition of NE: no. of cultures +++ (growth),[6]; [9],88
same,Growth Patterns after addition of NE: no. of cultures −−− (inhibition of growth),[6]; [9],14
same,Growth Patterns after addition of NE: no. of cultures +++ (growth),[6]; [10],88
same,Growth Patterns after addition of NE: no. of cultures −−− (inhibition of growth),[6]; [10],14
